In patent publication US11524966B1 (Valo Early Discovery, Inc., priority 2017, dated 2022):

These compounds were tested against T1, USP28 (His-tagged USP28-FL-mammalian) (Homo sapiens, UniProt Q96RU2) (assay: Ubiquitin-Rhodamine 110 Assay for USP28 Activity, Example A-1(a)). Details: Ubiquitin-Rhodamine 110 assay, Example A-1(a); read-out: USP28 A-1(a) IC50 range.
T1 construct: Expression of USP28 (1-1077)-TEV-6*His (pTT5 vector); made in house; host or cells: Expi293f cells (pTT5 vector)
T1 sequence (Q96RU2 1-1077): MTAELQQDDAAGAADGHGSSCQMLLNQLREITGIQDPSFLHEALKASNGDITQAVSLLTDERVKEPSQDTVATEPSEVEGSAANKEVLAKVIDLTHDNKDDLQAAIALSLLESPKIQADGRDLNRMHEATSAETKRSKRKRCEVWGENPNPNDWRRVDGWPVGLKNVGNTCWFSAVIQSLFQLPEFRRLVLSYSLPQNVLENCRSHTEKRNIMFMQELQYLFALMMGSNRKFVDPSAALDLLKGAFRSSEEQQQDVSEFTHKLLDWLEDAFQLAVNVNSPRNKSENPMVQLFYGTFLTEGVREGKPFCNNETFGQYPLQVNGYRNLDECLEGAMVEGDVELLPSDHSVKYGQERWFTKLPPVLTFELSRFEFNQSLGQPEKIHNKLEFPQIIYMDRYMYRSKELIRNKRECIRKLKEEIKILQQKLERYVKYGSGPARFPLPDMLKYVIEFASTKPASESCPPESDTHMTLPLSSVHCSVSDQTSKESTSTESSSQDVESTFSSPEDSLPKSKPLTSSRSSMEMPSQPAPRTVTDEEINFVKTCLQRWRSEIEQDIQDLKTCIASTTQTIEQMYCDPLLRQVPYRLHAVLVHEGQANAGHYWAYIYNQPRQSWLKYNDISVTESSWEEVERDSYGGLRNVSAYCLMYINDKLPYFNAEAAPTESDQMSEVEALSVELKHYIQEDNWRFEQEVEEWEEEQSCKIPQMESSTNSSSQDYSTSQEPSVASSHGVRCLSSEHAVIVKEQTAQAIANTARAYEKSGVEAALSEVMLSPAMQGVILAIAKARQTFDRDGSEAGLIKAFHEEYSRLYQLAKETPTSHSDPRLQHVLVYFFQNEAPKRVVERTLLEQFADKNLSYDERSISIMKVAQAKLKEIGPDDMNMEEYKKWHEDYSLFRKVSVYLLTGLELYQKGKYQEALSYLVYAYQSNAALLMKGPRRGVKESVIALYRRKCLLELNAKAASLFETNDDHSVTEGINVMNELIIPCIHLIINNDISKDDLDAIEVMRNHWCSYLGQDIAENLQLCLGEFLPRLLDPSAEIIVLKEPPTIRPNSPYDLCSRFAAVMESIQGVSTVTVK
Type: biochemical
Summary of the method: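 IC50 from 4-parameter logistic fit of percent inhibition versus no-enzyme and DMSO controls; compounds 25 μM to 1.3 nM, 3-fold. Ub-Rh110 cleavage (25 nM, below Km) by […] mammalian-expressed USP28-FL-His ran 45 min at room temperature, stopped with 10 mM citric acid, read ex 485/em 535.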

Compound	IC50 [nM]
Cc1cnc2c(N)c(C(=O)N[C@H]3CCc4cc(N5CCNC[C@@H](O)C5)ccc4C3)sc2n1 (single isomer, unassigned) [Example 7-4]	50 to 200
Cc1cnc2c(N)c(C(=O)N[C@@H]3CCc4cc(N5CCNC[C@@H](O)C5)ccc4C3)sc2n1 (single isomer, unassigned) [Example 7-5]	50 to 200
Cc1cnc2c(N)c(C(=O)N[C@H]3CCc4cc(N5CCNC[C@H](O)C5)ccc4C3)sc2n1 (single isomer, unassigned) [Example 7-6]	200 to 2000
Cc1cnc2c(N)c(C(=O)N[C@@H]3CCc4cc(N5CCNC[C@H](O)C5)ccc4C3)sc2n1 (single isomer, unassigned) [Example 7-7]	200 to 2000
Cc1ccc2c(N)c(C(=O)N[C@H]3CCc4cc(N5CCN[C@H](CO)C5)ccc4C3)sc2n1 (single isomer, unassigned) [Example 7-8]	200 to 2000
Cc1ccc2c(N)c(C(=O)N[C@H]3CCc4cc(N5CCN[C@@H](CO)C5)ccc4C3)sc2n1 (single isomer, unassigned) [Example 7-9]	200 to 2000
Cc1ccc2c(N)c(C(=O)N[C@@H]3CCc4cc(N5CCN[C@H](CO)C5)ccc4C3)sc2n1 (single isomer, unassigned) [Example 7-10]	50 to 200
Cc1ccc2c(N)c(C(=O)N[C@@H]3CCc4cc(N5CCN[C@@H](CO)C5)ccc4C3)sc2n1 (single isomer, unassigned) [Example 7-11]	50 to 200
Cc1ccc2c(N)c(C(=O)N[C@H]3COc4cc(O[C@@H]5COC6(CNC6)C5)ccc4C3)sc2n1 (single isomer, unassigned) [Example 9-1]	1 to 50
Cc1ccc2c(N)c(C(=O)N[C@H]3COc4cc(O[C@H]5COC6(CNC6)C5)ccc4C3)sc2n1 (single isomer, unassigned) [Example 9-2]	1 to 50
CO[C@H]1CN(c2cc(F)c3c(c2)OC[C@H](NC(=O)c2sc4nc(C)ccc4c2N)C3)C[C@@H]1N (single isomer, unassigned) [Example 10-3]	1 to 50
Cc1nc2sc(C(=O)N[C@H]3CCc4cc(N5CC6CCC(C5)N6)ccc4C3)c(N)c2cc1F (single isomer, unassigned) [Example 11-3]	50 to 200
Cc1nc2sc(C(=O)N[C@@H]3CCc4cc(N5CC6CCC(C5)N6)ccc4C3)c(N)c2cc1F (single isomer, unassigned) [Example 11-4]	1 to 50
COc1ccc2c(N)c(C(=O)N[C@H]3CCc4cc(N5CC6CCC(C5)N6)ccc4C3)sc2n1 (single isomer, unassigned) [Example 11-5]	1 to 50
COc1ccc2c(N)c(C(=O)N[C@@H]3CCc4cc(N5CC6CCC(C5)N6)ccc4C3)sc2n1 (single isomer, unassigned) [Example 11-6]	200 to 2000
Cc1cnc2c(N)c(C(=O)N[C@H]3CCc4cc(N5CC6CCC(C5)N6)ccc4C3)sc2n1 (single isomer, unassigned) [Example 11-7]	50 to 200
Cc1cnc2c(N)c(C(=O)N[C@@H]3CCc4cc(N5CC6CCC(C5)N6)ccc4C3)sc2n1 (single isomer, unassigned) [Example 11-8]	200 to 2000
CCn1ccc2cc(C(=O)N[C@H]3CCc4cc(N5CC6CCC(C5)N6)ccc4C3)cnc21 (single isomer, unassigned) [Example 11-9]	200 to 2000
CCn1ccc2cc(C(=O)N[C@@H]3CCc4cc(N5CC6CCC(C5)N6)ccc4C3)cnc21 (single isomer, unassigned) [Example 11-10]	50 to 200
Cc1ccc2c(N)c(C(=O)N[C@H]3CCc4cc(N5CCNCC5)cc(F)c4C3)sc2n1 (single isomer, unassigned) [Example 11-11]	200 to 2000
Cc1ccc2c(N)c(C(=O)N[C@@H]3CCc4cc(N5CCNCC5)cc(F)c4C3)sc2n1 (single isomer, unassigned) [Example 11-12]	1 to 50
Cc1cnc2c(N)c(C(=O)N[C@H]3CCc4cc(N5CC6CCC(C5)N6)cc(F)c4C3)sc2n1 (single isomer, unassigned) [Example 11-13]	200 to 2000
